Results as given in paper PMC10458698, “Characterization of the interferences of systemic azole antifungal drugs with adrenal steroid biosynthesis using H295R cells and enzyme activity assays” (Current Research in Toxicology, 2023).
Read-outs that look alike come from different tables or passages of the source.

Columns and labels:
[1] = target: T1, CYP17A1 17α-hydroxylase (Homo sapiens, UniProt P05093); experiment: CYP17A1 17α-hydroxylase activity assay, microsomes of transfected COS-1 cells; format: biochemical; conditions: cell-free
T1 construct: expressed in transfected cells; host or cells: COS-1 cells, transient transfection, microsomal fraction
T1 sequence (P05093 1-508): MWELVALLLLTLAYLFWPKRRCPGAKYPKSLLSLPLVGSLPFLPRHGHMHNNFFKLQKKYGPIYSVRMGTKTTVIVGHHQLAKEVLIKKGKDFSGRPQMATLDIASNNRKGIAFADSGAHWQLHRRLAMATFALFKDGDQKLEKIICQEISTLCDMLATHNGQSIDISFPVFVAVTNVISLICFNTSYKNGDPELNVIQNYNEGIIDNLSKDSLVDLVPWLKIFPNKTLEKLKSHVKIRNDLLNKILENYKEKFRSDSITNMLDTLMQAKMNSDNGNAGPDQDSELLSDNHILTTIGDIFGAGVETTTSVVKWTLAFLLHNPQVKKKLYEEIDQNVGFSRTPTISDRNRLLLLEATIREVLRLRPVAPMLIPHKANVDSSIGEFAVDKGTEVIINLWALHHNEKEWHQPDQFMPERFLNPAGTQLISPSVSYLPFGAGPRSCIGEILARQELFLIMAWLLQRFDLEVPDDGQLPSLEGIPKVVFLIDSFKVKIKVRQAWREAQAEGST
Method: (§1) Microsomes were prepared from COS-1 cells transiently transfected with plasmids for either CYP17A1 and POR for CYP17A1-hydroxylase assay (human CYP17A1 was available in our own plasmid collection after cloning into pcDNA3, POR was ordered from Genescript, Piscataway, USA, clone ID OHu25584C), CYP17A1, POR and cytochrome b5 for CYP17A1 17,20-lyase assay (cytochrome b5 was from Genescript, clone ID OHu09495D), POR and CYP21A2 (Genescript, CYP21A2 clone ID OHu18602D), or 3β-HSD2 (Genescript, clone ID OHu14034D). Transfection was performed using PEI and equal amounts of required plasmids with a total DNA amount of 8 µg per transfection of 3,000,000 cells. After overnight incubation, cells were washed with prewarmed PBS before adding ice-cold PBS. Cells were collected and centrifuged at 600 × g for 4 min at 4 °C, washed with ice cold PBS and centrifuged again. The pellet was resuspended in a resuspension buffer (20 mM Tris, pH 7.5, 50 mM KCl, 2 mM MgCl2, 0.25 M sucrose). Cells were disrupted with 30 S by a glass potter (2 cm^3) as described above. The homogenate was centrifuged for 20 min at 12,000 × g and 4 °C. Microsomes were pelleted by ultracentrifugation at 100,000 × g for 1 h at 4 °C. The pellet was resuspended in reaction buffer and the protein concentration determined using the Pierce Protein BCA kit as described above.
(§2) Microsomal protein (250 µg/mL) was preincubated with 1 mM NADPH and the compound of interest in reaction buffer for 10 min. The reaction was started by adding progesterone spiked with a radioactive tracer (final activity 0.025 mCi) to a final concentration of 500 nM. After 10 min of incubation at 37 °C the reaction was stopped by adding enzyme substrate and product at a final concentration of 1 mM in methanol, followed by shock-freezing in liquid nitrogen. Steroids were separated by thin layer chromatography on SIL G-25 UV254 TLC plates (Macherey-Nagel, Düren, Germany) using chloroform and ethyl acetate (1:4; v:v). Bands were excised and radiolabeled steroids analyzed by scintillation counting using […] Plus cocktail (Zinsser Analytic, Frankfurt am Main, Germany) and a β-counter (Packard, Connecticut, USA). Relative conversion was calculated based on total counts.

[2] = target: T2, CYP17A1 17,20-lyase (Homo sapiens, UniProt P05093); experiment: CYP17A1 17,20-lyase activity assay, microsomes of transfected COS-1 cells; format: biochemical; conditions: for IC50: cell-free, 17α-hydroxypregnenolone 500 nM, 1 h
T2 construct: expressed in transfected cells; host or cells: COS-1 cells, transient transfection, microsomal fraction
T2 sequence (P05093 1-508): T1 sequence (P05093 1-508)
Method: as §1
Microsomes, 250 µg/mL, expressing CYP17A1, POR and cytochrome b5 were incubated in reaction buffer for 10 min with 1 mM NADPH and the azole antifungals. The reaction was started by adding 500 nM 17α-hydroxypregnenolone in a total reaction volume of 50 µL. After 1 h of incubation at 37 °C, the reaction was stopped adding 50 µL methanol. Samples were evaporated to dryness, reconstituted in 6 µL methanol, diluted 1:25 in water and the DHEA concentration was quantified using an ELISA kit (DEH3344, Demeditec, Kiel, Germany). Absorbance was measured using a BioTek Citation5 imaging reader.

[3] = target: T3, CYP21A2 (Homo sapiens, UniProt P08686); experiment: CYP21A2 activity assay, microsomes of transfected COS-1 cells; format: biochemical; conditions: cell-free, progesterone 500 nM, 10 min
T3 construct: host or cells: COS-1 cells, transient transfection, microsomal fraction
T3 sequence (P08686 1-495): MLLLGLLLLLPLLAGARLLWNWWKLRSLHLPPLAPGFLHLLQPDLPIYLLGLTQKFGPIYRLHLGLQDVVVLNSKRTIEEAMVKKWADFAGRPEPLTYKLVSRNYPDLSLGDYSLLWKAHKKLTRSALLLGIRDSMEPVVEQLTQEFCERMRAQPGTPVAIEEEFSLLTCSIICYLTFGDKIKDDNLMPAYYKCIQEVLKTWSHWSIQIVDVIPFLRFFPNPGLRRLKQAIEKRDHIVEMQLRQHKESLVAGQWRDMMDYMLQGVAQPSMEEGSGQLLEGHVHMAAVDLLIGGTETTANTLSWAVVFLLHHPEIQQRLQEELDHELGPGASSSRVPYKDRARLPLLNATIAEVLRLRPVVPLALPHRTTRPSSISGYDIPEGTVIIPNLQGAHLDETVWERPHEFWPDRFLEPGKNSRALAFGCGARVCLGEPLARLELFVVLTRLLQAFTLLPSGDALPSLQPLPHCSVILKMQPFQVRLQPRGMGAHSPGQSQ
Method: as §1, §2

[4] = tested on: H295R cells; experiment: Steroidogenesis assay in forskolin-stimulated H295R cells, UHPLC-MS/MS; format: cell-based, human; conditions: forskolin-stimulated, 48 h, in words
Method: Briefly, 200,000 cells/mL between passages 5 and 10 were seeded in a 24-well plate. After 24 h, the medium was replaced by fresh medium containing reference or test compounds. […] As a time zero control, complete medium was incubated without cells. After 48 h of incubation, the cell culture supernatant was collected and stored at −20 °C until steroid quantification was performed by ultra-high liquid chromatography tandem mass spectrometry (UHPLC-MS/MS). All experiments were performed three times independently in technical duplicates.
Using water, the sample volume was adapted to 1 mL. Samples were extracted using Oasis HLB 3 cc SPE cartridge (30 mg, 30 μm particle size, Waters, Massachusetts, USA). Columns were preconditioned with 1 mL ethyl acetate and water prior to application of samples. After sample loading, columns were washed three times with 1 mL methanol (10% v/v) and water before samples were eluted applying 0.75 mL ethyl acetate twice. Eluates were evaporated to dryness and reconstituted in 50 µL methanol. Samples were applied to a reverse phase column (Waters Acquity UPLC BEH C18, 1.7 μm, 2.1 mm × 150 mm). […] Applied mobile phases consisted of water, acetonitrile and formic acid (95/5/0.1; v/v/v and 5/95/0.1; v/v/v). For data analysis, Hunter software version B.09.00 (Agilent Technologies) was used. Lower limit of detection (LOD), lower limit of quantification (LLOQ), and upper limit of quantification (ULOQ) are shown in Table 1.

[5] = tested on: 11β-HSD2; parameters: method as in Beck et al., 2017, Beck et al., 2020a; conditions: in words, ref Beck et al., 2017, Beck et al., 2020a; cited from earlier work
[6] = parameters: method as in earlier work; conditions: ref Zhang et al., 2018, Märtson et al., 2019, Vena et al., 2020, Risum et al., 2021, cited from earlier work
[7] = target: T4, CYP11A1 (Homo sapiens, UniProt P05108); experiment: CYP11A1 assay based on mitochondrial fraction of V79-4 cells; format: biochemical; conditions: 10 µM, 20S-hydroxycholesterol 2 µM, 4 h, qualitative, assay of low sensitivity
T4 construct: host or cells: V79-4 cells (Chinese hamster), transient transfection, mitochondrial fraction
T4 sequence (P05108 40-521): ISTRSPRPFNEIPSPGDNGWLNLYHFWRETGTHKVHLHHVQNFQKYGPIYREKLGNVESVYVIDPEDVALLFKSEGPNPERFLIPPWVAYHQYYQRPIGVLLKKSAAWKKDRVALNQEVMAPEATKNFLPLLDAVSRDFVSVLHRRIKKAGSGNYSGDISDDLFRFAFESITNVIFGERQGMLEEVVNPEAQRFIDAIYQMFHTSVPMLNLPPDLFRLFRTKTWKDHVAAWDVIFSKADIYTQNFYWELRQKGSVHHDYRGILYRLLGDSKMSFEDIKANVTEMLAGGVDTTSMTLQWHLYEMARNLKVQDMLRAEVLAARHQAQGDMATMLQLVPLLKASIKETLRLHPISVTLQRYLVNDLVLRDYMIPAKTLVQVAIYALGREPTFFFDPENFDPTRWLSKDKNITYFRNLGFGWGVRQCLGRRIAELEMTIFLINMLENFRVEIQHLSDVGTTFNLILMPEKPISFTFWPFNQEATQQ
Method: Mitochondria were prepared as described previously with modifications ([Frezza et al., 2007]). Briefly, V79-4 cells (3,000,000) were seeded 4 h prior to transfection with 4 µg of expression plasmid for CYP11A1 and adrenodoxin (GeneScript Piscataway, USA, clone IDs OHu18602D and OHu55929D) using polyethylemine (PEI) in a PEI/DNA ratio of 3:1 (w/w). At 4 h post-transfection, medium was changed and cells were incubated overnight. Cells were collected in ice cold phosphate buffered saline (PBS) and centrifuged at 600 × g for 10 min at 4 °C. The pellet was resuspended in ice cold isolation buffer (10 mM Tris/MOPS, pH 7.4, 1 mM EGTA/Tris, pH 7.4, 200 mM sucrose in water) and transferred to a glass potter, followed by 35 S using a 2 cm^3 glass Teflon pestle. The homogenate was centrifuged for 10 min at 600 × g and 4 °C. The supernatant was collected and centrifuged for 10 min at 7000 × g at 4 °C. The pellet was washed and resuspended in 200 μL ice cold isolation buffer. After centrifugation, the pellet containing the mitochondrial fraction was resuspended in 30 μL reaction buffer (25 mM HEPES pH 7.4, 0.1 mM DTT, 0.1 mM EDTA, 4 mM MgCl2) and the protein content was determined by the BCA assay according to the manufacturer (Pierce BCA protein assay kit, Thermo Scientific, Rockford, USA). Bovine serum albumin provided with the kit was used as reference protein and absorbance was measured using a BioTek Cytation5 Imaging Reader (Agilent BioTek).
For the CYP11A1 activity assay, 500 µg/mL of freshly prepared mitochondrial fraction were pre-incubated on ice with reaction buffer, 1 mM NADPH and either vehicle (0.1% DMSO), 10 µM of the positive control ketoconazole ([Mast et al., 2013]) or the triazole antifungals for 10 min. The reaction was started by adding the substrate 20S-hydroxycholesterol at a final concentration of 2 µM in a reaction volume of 50 µL. After 4 h of incubation at 37 °C, the reaction was stopped by adding 50 µL methanol and shock-freezing in liquid nitrogen. Samples were stored at −80 °C until sample preparation for pregnenolone detection using an ELISA kit (Alpco, Salem, USA). Sample preparation included evaporation of samples to dryness, reconstitution in 6 µL methanol and 1:25 (v:v) dilution in water. The ELISA was performed according to the manufacturer and absorbance was measured using a BioTek Citation5 imaging reader.

[8] = progesterone 500 nM, 10 min, read-out: IC50 CYP17A1 17α-hydroxylase mean

Structure (SMILES)	inhibition of CYP17A1 17α-hydroxylase ([1]; in words)	IC50 [1, 8] [nM]	IC50 [2] [nM]	lower inhibitory potency against 17,20-lyase than posaconazole ([2]; relative to posaconazole) [times]	IC50 [3] [nM]	effect on the steroid profile [4]	inhibition of 11β-HSD2 [5]	serum trough concentration ([6]; molar value in brackets) [µM]	serum trough concentration [6] [µg/mL]	inhibition of CYP11A1 activity [7]	IC50 ([1]; read-out: IC50 against 17α-hydroxylase) [nM]
CC(O)C(C)n1ncn(-c2ccc(N3CCN(c4ccc(OCC5COC(Cn6cncn6)(c6ccc(Cl)cc6Cl)O5)cc4)CC3)cc2)c1=O (centres unmarked) [OH-itraconazole, Hydroxyitraconazole]	very weakly	7160	2480	10	> 10000						
OC(Cn1cncn1)(Cn1cncn1)c1ccc(F)cc1F [fluconazole]		> 10000	> 10000		> 10000	only minor effects on the steroid profile	inactive	~3	11		
CC(=O)N1CCN(c2ccc(OCC3COC(Cn4ccnc4)(c4ccc(Cl)cc4Cl)O3)cc2)CC1 (centres unmarked) [ketoconazole]										weak inhibitory effect	
CCCN(CCOc1c(Cl)cc(Cl)cc1Cl)C(=O)n1ccnc1 [prochloraz]		90	40		210	significant accumulation of progesterone					94.5
C[C@@H](c1ncncc1F)[C@](O)(Cn1cncn1)c1ccc(F)cc1F [voriconazole]		> 10000	> 10000		> 10000	only minor effects on the steroid profile	inactive				
